Among the data in ChEMBL document CHEMBL5038646, “Structure-Activity Relationship Studies of New Sinapic Acid Phenethyl Ester Analogues Targeting the Biosynthesis of 5-Lipoxygenase Products: The Role of Phenolic Moiety, Ester Function, and Bioisosterism” (J Nat Prod, 2022) are inhibition and IC50 values, retold here.

Activity calls are given as the source filed them. No cut-off for these calls is given here.

Experiment [1] has as its target T1, Polyunsaturated fatty acid 5-lipoxygenase (Homo sapiens) (UniProt P09917).
T1 sequence (whole entry): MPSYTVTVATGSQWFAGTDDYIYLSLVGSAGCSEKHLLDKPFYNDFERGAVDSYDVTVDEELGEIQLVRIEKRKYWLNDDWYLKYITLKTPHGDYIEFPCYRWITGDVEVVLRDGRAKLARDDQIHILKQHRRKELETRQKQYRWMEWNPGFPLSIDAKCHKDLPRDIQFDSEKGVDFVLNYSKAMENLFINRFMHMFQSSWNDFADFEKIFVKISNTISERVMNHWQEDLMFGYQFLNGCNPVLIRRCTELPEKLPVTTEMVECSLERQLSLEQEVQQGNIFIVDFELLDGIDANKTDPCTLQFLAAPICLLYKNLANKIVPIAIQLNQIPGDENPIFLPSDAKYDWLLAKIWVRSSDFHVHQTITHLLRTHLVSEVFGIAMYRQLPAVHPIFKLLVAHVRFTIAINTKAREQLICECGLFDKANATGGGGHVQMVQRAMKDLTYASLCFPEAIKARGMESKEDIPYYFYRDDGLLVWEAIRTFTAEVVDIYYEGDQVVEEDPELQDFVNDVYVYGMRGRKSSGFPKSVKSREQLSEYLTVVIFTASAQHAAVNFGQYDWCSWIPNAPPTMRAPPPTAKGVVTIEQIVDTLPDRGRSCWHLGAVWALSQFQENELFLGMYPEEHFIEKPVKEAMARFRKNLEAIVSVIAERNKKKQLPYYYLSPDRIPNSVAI
Nature of the experiment: Inhibition of 5-LO in A23187-stimulated human HEK293 cells assessed as reduction in 5-LO product level at 1 uM preincubated for 5 mins followed by A23187, arachidonic acid addition and measured after 15 mins by RP-HPLC analysis relative to control. In kind it is cell-based.

Experiment [2] has as its target T2, Polyunsaturated fatty acid 5-lipoxygenase (Homo sapiens, UniProt P09917).
T2 sequence (P09917 whole entry): T1 sequence (whole entry)
Kind of experiment: Inhibition of 5-LO in thapsigargin stimulated human PMNL cells assessed as reduction in 5-LO product level preincubated for 5 mins followed by thapsigargin addition and measured after 15 mins by RP-HPLC analysis. The format is cell-based.

For the molecule `COc1cc(/C=C/C(=O)OCCc2ccc(F)cc2)cc(OC)c1O`, the inhibition result in experiment [1] is “Active”.
`COc1cc(/C=C/C(=O)OCCc2ccc(C(F)(F)F)cc2)cc(OC)c1O`: in experiment [1], the inhibition result was “Active”.
For orientation: IC50 means the concentration that gives 50% inhibition. With `COc1cc(CCC(=O)CCc2ccccc2)cc(OC)c1O`, the inhibition entry in experiment [1] was “Active”. Further, the IC50 in experiment [2] was determined as 420 nM.
On to `CCOC(=O)/C=C/c1cc(OC)c(O)c(OC)c1`, for which the inhibition entry in experiment [1] is “inactive”.
As to `COc1cc(/C=C/C(=O)OCCc2cccc(F)c2)cc(OC)c1O`, in experiment [1], the inhibition result was “Active”. Moreover, the IC50 in experiment [2] amounted to 230 nM.
Take `CC(c1cc2ccccc2s1)N(O)C(N)=O` (stereo not given): the inhibition result in experiment [1] is “Active”.
Still for that read-out and setting: in the case of `COc1cc(C(=O)OCCc2ccccc2)cc(OC)c1O` it was “inactive”; in that of `COc1cc(/C=C/C(=O)OCCc2ccccc2)cc(OC)c1`, “inactive”.
In the case of `COc1cc(/C=C/C(=O)OCCc2cccc(C(F)(F)F)c2)cc(OC)c1O`, the inhibition entry in experiment [1] is “Active”. Also, the IC50 in experiment [2] is 200 nM.
For the molecule `COc1cc(/C=C/C(=O)OCCc2ccccc2)cc(OC)c1OC(C)=O`, the inhibition entry in experiment [1] is “Active”. Moreover, the IC50 in experiment [2] was 270 nM.
On to `COc1cccc(/C=C/C(=O)OCCc2ccccc2)c1OC`, for which the inhibition result in experiment [1] was “inactive”.
As for `COc1cc(/C=C/C(=O)OCCc2ccccc2C(F)(F)F)cc(OC)c1O`, in experiment [1], the inhibition entry is “Active”. Also, the IC50 in experiment [2] was 350 nM.
For the molecule `COc1cc(/C=C/C(=O)OC(C)C)cc(OC)c1O`, the inhibition result in experiment [1] is “inactive”.
As to `COc1cc(/C=C/C(=O)OCCc2ccccc2C)cc(OC)c1O`, the inhibition result in experiment [1] was “Active”. In addition, in experiment [2], the IC50 came to 240 nM.
With `COc1cc(/C=C/c2nc(CCc3ccccc3)no2)cc(OC)c1O`, the inhibition entry in experiment [1] is “Active”. Besides, the IC50 in experiment [2] worked out at 270 nM.
For `COc1cccc(CCOC(=O)/C=C/c2cc(OC)c(O)c(OC)c2)c1`, the inhibition entry in experiment [1] is “Active”. For the same molecule, the IC50 in experiment [2] amounted to 210 nM.
In the case of `COc1cc(/C=C/C(=O)OCCc2ccc(C)cc2)cc(OC)c1O`, the inhibition entry in experiment [1] is “Active”.
Take `COc1cc(CCC(=O)OCCc2ccccc2)cc(OC)c1O`: in experiment [1], the inhibition result is “Active”. Besides, the IC50 in experiment [2] came to 590 nM.
Take `COc1ccccc1CCOC(=O)/C=C/c1cc(OC)c(O)c(OC)c1`: the inhibition entry in experiment [1] was “Active”. The concentration for half-maximal inhibition (IC50) in experiment [2] worked out at 250 nM.
In the case of `C#CCOC(=O)/C=C/c1cc(OC)c(O)c(OC)c1`, the inhibition entry in experiment [1] was “Active”.
For the molecule `COc1cc(/C=C/C(=O)NCCc2ccccc2)cc(OC)c1O`, in experiment [1], the inhibition result is “inactive”. Moreover, in experiment [2], the IC50 turned out to be 960 nM.
Regarding `COc1cc(/C=C/c2nc(Cc3ccccc3)no2)cc(OC)c1O`, the inhibition result in experiment [1] was “Active”. Moreover, the concentration for half-maximal inhibition (IC50) in experiment [2] is 300 nM.
For `COc1cc(/C=C/C(=O)OCCc2cccc(C)c2)cc(OC)c1O` the same measures were “Active” and 200 nM.
With `COc1cc(/C=C/C(=O)OCCC2CCCCC2)cc(OC)c1O`, in experiment [1], the inhibition entry is “Active”.
Regarding `COc1ccc(CCOC(=O)/C=C/c2cc(OC)c(O)c(OC)c2)cc1`, in experiment [1], the inhibition result was “Active”.
On the same count and under the same terms, the entry for `COC(=O)/C=C/c1cc(OC)c(O)c(OC)c1` is “inactive”.
On the same count and under the same terms, the entry for `COc1cc(/C=C/C(=O)CCc2ccccc2)cc(OC)c1O` is “Active”.
Turning to `COc1cc(/C=C/COCc2ccccc2)cc(OC)c1O`, the inhibition result in experiment [1] is “Active”. Also, in experiment [2], the IC50 stood at 1100 nM.
`COc1ccc(OC)c(/C=C/C(=O)OCCc2ccccc2)c1`: the inhibition result in experiment [1] is “inactive”.
Regarding `COc1cc(/C=C/C(=O)OCCc2ccccc2)cc(OC)c1OC`, the inhibition result in experiment [1] was “inactive”.
Turning to `COc1cc(CC(=O)OCCc2ccccc2)cc(OC)c1O`, the inhibition result in experiment [1] was “inactive”. Moreover, in experiment [2], the IC50 is 1100 nM.
In the case of `CCCOC(=O)/C=C/c1cc(OC)c(O)c(OC)c1`, the inhibition entry in experiment [1] was “Active”. Further, the IC50 in experiment [2] was determined as 710 nM.
With `COc1cc(/C=C/C(=O)OCCCc2ccccc2)cc(OC)c1O`, the inhibition result in experiment [1] was “Active”. In experiment [2], the IC50 was determined as 340 nM.
On to `COc1cc(/C=C/C(=O)OCCc2ccccc2F)cc(OC)c1O`, for which, in experiment [1], the inhibition result was “Active”. Besides, the IC50 in experiment [2] stood at 240 nM.
In the case of `COc1cc(/C=C/COCCCc2ccccc2)cc(OC)c1O`, the inhibition result in experiment [1] was “Active”. Also, in experiment [2], the IC50 is 560 nM.
Turning to `COc1cc(/C=C/C(=O)OCCc2ccccc2)cc(OC)c1O`, the inhibition result in experiment [1] is “Active”.
